Experimental data taken from US10899769B2, “Imidazopiperazinone inhibitors of transcription activating proteins” (Board of Regents, The University of Texas System, priority 2018, dated 2021).

How the values were obtained:
[1] = molecular target: GST-CBP(1081-1197) bromodomain (Homo sapiens (Human), UniProt Q92793); test: CBP AlphaScreen Assay; settings: binding to biotin-H4(1-21) Ac-K5/8/12/16
Protocol: (§1) Specific binding of the CBP or BRD4 bromodomain to the acetylated peptide derived from the H4 histone substrate (tetra acetylated H4(1-21) Ac-K5/8/12/16) was measured in absence or presence of inhibitors. The GST tagged bromodomains of CBP (1081-1197) and BRD4 (49-170) were obtained from BPS Bioscience and binding to the biotinylated H4(1-21) Ac-K5/8/12/16 (AnaSpec. 64989) was assessed via AlphaScreen technology (Perkin Elmer).
(§2) 5 nM GST-CBP(1081-1197) and 20 nM biotin-H4(1-21) Ac-K5/8/12/16 (AnaSpec. 64989) were incubated with varying concentrations of CBP inhibitors in 15 μL of buffer containing 50 mM HEPES 7.5, […], 1 mM TCEP, and 0.003% Tween-20. After 30 minutes incubation at room temperature, 15 μL of detection buffer (BPS Bio. 33006) containing 7 μg/mL of Glutathione AlphaLisa acceptor beads (Perkin Elmer AL109) and 14 μg/mL of Streptavidin donor beads (Perkin Elmer 676002) was then added to the previous mixture. The reaction was incubated for an additional 2 hours at room temperature, and the AlphaScreen signal was quantified using the Envision Multilabel plate reader. As negative control, GST-CBP(1081-1197) was incubated with the non-acetylated biotin-H4(1-21) peptide(AnaSpec. 62555) and in presence of 0.25% of final DMSO concentration.
(§3) the binding of 2.5 nM of BRD4(49-170) to 10 nM biotin-H4(1-21) Ac-K5/8/12/16 (AnaSpec. 64989) was assessed following the same procedure described for the CBP assay. The standard dose response curves were fitted by Genedata Screener software using the variable-slope model: Signal=Signalnegative control+(SignalDMSO control−Signalnegative control)/(1+(IC50/Dose)^Hill slope).
(§4) Only Signal and Dose in the equation were treated as know values.

BRD4(49-170) bromodomain = BRD4(49-170) bromodomain (Homo sapiens (Human), UniProt O60885); test: BRD4 AlphaScreen Assay; settings: binding to biotin-H4(1-21) Ac-K5/8/12/16
Protocol: as §1, §2, §3, §4

Chain of GST-CBP(1081-1197) bromodomain (Q92793 1081-1197): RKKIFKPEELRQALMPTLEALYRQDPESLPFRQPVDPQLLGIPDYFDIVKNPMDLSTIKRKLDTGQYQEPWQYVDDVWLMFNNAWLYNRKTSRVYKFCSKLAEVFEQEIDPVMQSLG

IC50 [1]	IC50 (BRD4(49-170) bromodomain)	Compound
7 nM	8810 nM	CN1Cc2c(N3CCCc4cc(-c5cnn(C)c5)c(C(F)F)cc43)nc(C3CC3)n2CC1=O [Example 1, 3-cyclopropyl-1-(7-(difluoromethyl)-6-(1-methyl-1H-pyrazol-4-yl)-3,4-dihydroquinolin-1(2H)-yl)-7-methyl-7,8-dihydroimidazo[1,5-a]pyrazin-6(5H)-one]
6 nM	17600 nM	CCN1Cc2c(N3CCCc4cc(-c5cnn(C)c5)c(C(F)F)cc43)nc(C3CC3)n2CC1=O [Example 4, 3-Cyclopropyl-1-(7-(difluoromethyl)-6-(1-methyl-1H-pyrazol-4-yl)-3,4-dihydroquinolin-1(2H)-yl)-7-ethyl-7,8-dihydroimidazo[1,5-a]pyrazin-6(5H)-one]
4 nM	353 nM	C[C@@H]1CN(C)C(=O)c2c(-c3cccc4nc(-c5cnn(C)c5)c(C(F)F)cc34)nc(C3CCOCC3)n21 [Example 5a, (R)-1-(3-(Difluoromethyl)-2-(1-methyl-1H-pyrazol-4-yl)quinolin-5-yl)-5,7-dimethyl-3-(tetrahydro-2H-pyran-4-yl)-7,8-dihydroimidazo[1,5-a]pyrazin-(5H)-one]
2670 nM	25000 nM	C[C@H]1C(=O)N(C)Cc2c(-c3cccc4nc(-c5cnn(C)c5)c(C(F)F)cc34)nc(C3CCOCC3)n21 [Example 5b, (S)-1-(3-(difluoromethyl)-2-(1-methyl-1H-pyrazol-4-yl)quinolin-5-yl)-5,7-dimethyl-3-(tetrahydro-2H-pyran-4-yl)-7,8-dihydroimidazo[1,5-a]pyrazin-6(5H)-one]
2250 nM	25000 nM	Cn1cc(-c2cc3cccc(-c4nc(C5CC5)n5c4CN(CCO)C(=O)C5)c3cn2)cn1 [Example 6, 3-Cyclopropyl-7-(2-hydroxyethyl)-1-(3-(1-methyl-1H-pyrazol-4-yl)isoquinolin-8-yl)-7,8-dihydroimidazo[1,5-a]pyrazin-6(5H)-one]
19 nM	4970 nM	Cn1cc(-c2cc3cccc(-c4nc(C5CC5)n5c4CN(CCF)C(=O)C5)c3cn2)cn1 [Example 7, 3-Cyclopropyl-7-(2-fluoroethyl)-1-(3-(1-methyl-1H-pyrazol-4-yl)isoquinolin-8-yl)-7,8-dihydroimidazo[1,5-a]pyrazin-6(5H)-one]
3 nM	366 nM	CC1C(=O)N(C)Cc2c(-c3cccc4nc(C5=CCOCC5)c(C(F)F)cc34)nc(C3CC3)n21 (centres unmarked) [Example 9, 3-Cyclopropyl-1-(3-(difluoromethyl)-2-(3,6-dihydro-2H-pyran-4-yl)quinolin-5-yl)-5,7-dimethyl-7,8-dihydroimidazo[1,5-a]pyrazin-6(5H)-one]
2 nM	51 nM	CC1C(=O)N(C)Cc2c(-c3cccc4nc(C5CCOCC5)c(C(F)F)cc34)nc(C3CC3)n21 (centres unmarked) [Example 10, 3-Cyclopropyl-1-(3-(difluoromethyl)-2-(tetrahydro-2H-pyran-4-yl)quinolin-5-yl)-5,7-dimethyl-7,8-dihydroimidazo[1,5-a]pyrazin-6(5H)-one]
4 nM	268 nM	Cc1cn(-c2nc3cccc(-c4nc(C5CC5)n5c4CN(C)C(=O)C5C)c3cc2C(F)F)cn1 (centres unmarked) [Example 11, 3-cyclopropyl-1-(3-(difluoromethyl)-2-(4-methyl-1H-imidazol-1-yl)quinolin-5-yl)-5,7-dimethyl-7,8-dihydroimidazo[1,5-a]pyrazin-6(5H)-one]
3 nM	130 nM	Cc1cn(-c2nc3cccc(-c4nc(C5CC5)n5c4CN(C)C(=O)C5C)c3cc2C(F)F)nn1 (centres unmarked) [Example 12, 3-cyclopropyl-1-(3-(difluoromethyl)-2-(4-methyl-1H-1,2,3-triazol-1-yl)quinolin-5-yl)-5,7-dimethyl-7,8-dihydroimidazo[1,5-a]pyrazin-6(5H)-one]
2 nM	187 nM	Cc1ncc(-c2cc3cccc(-c4nc(C5CC5)n5c4CN(C)C(=O)C5C)c3cn2)s1 (centres unmarked) [Example 13, 3-Cyclopropyl-5,7-dimethyl-1-(3-(2-methylthiazol-5-yl)isoquinolin-8-yl)-7,8-dihydroimidazo[1,5-a]pyrazin-6(5H)-one]
3 nM	440 nM	Cc1cnn(-c2cc3cccc(-c4nc(C5CC5)n5c4CN(C)C(=O)C5C)c3cn2)c1 (centres unmarked) [Example 14, 3-Cyclopropyl-5,7-dimethyl-1-(3-(4-methyl-1H-pyrazol-1-yl)isoquinolin-8-yl)-7,8-dihydroimidazo[1,5-a]pyrazin-6(5H)-one]
2 nM	3030 nM	CC1C(=O)N(C)Cc2c(-c3cccc4cc(-c5nn[nH]n5)ncc34)nc(C3CC3)n21 (centres unmarked) [Example 17, 1-(3-(2H-Tetrazol-5-yl)isoquinolin-8-yl)-3-cyclopropyl-5,7-dimethyl-7,8-dihydroimidazo[1,5-a]pyrazin-6(5H)-one]
50 nM	17500 nM	CC1C(=O)N(C)Cc2c(-c3cccc4nc(-c5cnn(C)c5)c(C(F)F)cc34)nc(C3CNC3)n21 (centres unmarked) [Example 18, 3-(Azetidin-3-yl)-1-(3-(difluoromethyl)-2-(1-methyl-1H-pyrazol-4-yl)quinolin-5-yl)-5,7-dimethyl-7,8-dihydroimidazo[1,5-a]pyrazin-6(5H)-one]
41 nM	5900 nM	CC(=O)N1CC(c2nc(-c3cccc4nc(-c5cnn(C)c5)c(C(F)F)cc34)c3n2C(C)C(=O)N(C)C3)C1 (centres unmarked) [Example 19, 3-(1-Acetylazetidin-3-yl)-1-(3-(difluoromethyl)-2-(1-methyl-1H-pyrazol-4-yl)quinolin-5-yl)-5,7-dimethyl-7,8-dihydroimidazo[1,5-a]pyrazin-6(5H)-one]
37 nM	8570 nM	CC1C(=O)N(C)Cc2c(-c3cccc4nc(-c5cnn(C)c5)c(C(F)F)cc34)nc(C3CN(S(C)(=O)=O)C3)n21 (centres unmarked) [Example 20, 1-(3-(Difluoromethyl)-2-(1-methyl-1H-pyrazol-4-yl)quinolin-5-yl)-5,7-dimethyl-3-(1-(methylsulfonyl)azetidin-3-yl)-7,8-dihydroimidazo[1,5-a]pyrazin-6(5H)-one]
13 nM	6160 nM	CC1C(=O)N(C)Cc2c(-c3cccc4nc(-c5cnn(C)c5)c(C(F)F)cc34)nc(C3CN(CC(F)(F)F)C3)n21 (centres unmarked) [Example 21, 1-(3-(Difluoromethyl)-2-(1-methyl-1H-pyrazol-4-yl)quinolin-5-yl)-5,7-dimethyl-3-(1-(2,2,2-trifluoroethyl)azetidin-3-yl)-7,8-dihydroimidazo[1,5-a]pyrazin-6(5H)-one]
11 nM	4340 nM	CC1C(=O)N(C)Cc2c(-c3cccc4nc(-c5cnn(C)c5)c(C(F)F)cc34)nc(C3CN(CC(F)F)C3)n21 (centres unmarked) [Example 22, 3-(1-(2,2-Difluoroethyl)azetidin-3-yl)-1-(3-(difluoromethyl)-2-(1-methyl-1H-pyrazol-4-yl)quinolin-5-yl)-5,7-dimethyl-7,8-dihydroimidazo[1,5-a]pyrazin-6(5H)-one]
94 nM	24600 nM	COCCN1CC(c2nc(-c3cccc4nc(-c5cnn(C)c5)c(C(F)F)cc34)c3n2C(C)C(=O)N(C)C3)C1 (centres unmarked) [Example 23, 1-(3-(Difluoromethyl)-2-(1-methyl-1H-pyrazol-4-yl)quinolin-5-yl)-3-(1-(2-methoxyethyl)azetidin-3-yl)-5,7-dimethyl-7,8-dihydroimidazo[1,5-a]pyrazin-6(5H)-one]
81 nM	4890 nM	CNC(=O)N1CC(c2nc(-c3cccc4nc(-c5cnn(C)c5)c(C(F)F)cc34)c3n2C(C)C(=O)N(C)C3)C1 (centres unmarked) [Example 24, 3-(1-(3-(Difluoromethyl)-2-(1-methyl-1H-pyrazol-4-yl)quinolin-5-yl)-5,7-dimethyl-6-oxo-5,6,7,8-tetrahydroimidazo[1,5-a]pyrazin-3-yl)-N-methylazetidine-1-carboxamide]
26 nM	11600 nM	CC1C(=O)N(C)Cc2c(-c3cccc4nc(-c5cnn(C)c5)c(C(F)F)cc34)nc(C3CN(CCF)C3)n21 (centres unmarked) [Example 25, 1-(3-(Difluoromethyl)-2-(1-methyl-1H-pyrazol-4-yl)quinolin-5-yl)-3-(1-(2-fluoroethyl)azetidin-3-yl)-5,7-dimethyl-7,8-dihydroimidazo[1,5-a]pyrazin-6(5H)-one]
43 nM	8940 nM	CN1Cc2c(-c3cccc4nc(-c5cnn(C)c5)c(C(F)F)cc34)nc(C3CCOCC3)n2C(F)C1=O (centres unmarked) [Example 27, 1-(3-(Difluoromethyl)-2-(1-methyl-1H-pyrazol-4-yl)quinolin-5-yl)-5-fluoro-7-methyl-3-(tetrahydro-2H-pyran-4-yl)-7,8-dihydroimidazo[1,5-a]pyrazin-6(5H)-one]
